Assays:
[1] = target: T1, polypeptide consisting of the amino acid sequence of SEQ ID NO: 2 (Homo sapiens, UniProt Q8TDV5); experiment: CRE-luciferase reporter screening in transfected 293-EBNA cells (Example 7); format: cell-based; settings: 293-EBNA cells transfected with pEF-BOS-NA and pCRE-Luc; 5-6 hours incubation; read-out: EC50 value (increase of reporter activity)
T1 construct: expressed in transfected cells; host or cells: 293-EBNA cells, transient transfection with plasmid pEF-BOS-NA
T1 sequence (Q8TDV5 1-335): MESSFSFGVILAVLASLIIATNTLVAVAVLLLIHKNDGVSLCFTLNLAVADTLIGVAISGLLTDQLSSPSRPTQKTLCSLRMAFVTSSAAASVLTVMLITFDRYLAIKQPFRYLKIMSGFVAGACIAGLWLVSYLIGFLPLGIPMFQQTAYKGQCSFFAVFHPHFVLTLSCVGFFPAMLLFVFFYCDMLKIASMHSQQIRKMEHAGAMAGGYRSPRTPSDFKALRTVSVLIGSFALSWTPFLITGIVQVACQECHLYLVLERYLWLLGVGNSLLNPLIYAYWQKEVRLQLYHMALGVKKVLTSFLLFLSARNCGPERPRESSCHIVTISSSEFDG
Method: (§1) The pEF-BOS-NA plasmid used in Example 6 was also used in the present Example.
293-EBNA cells, (1×10^4 cells/well) were seeded on a 96-well plate coated with collagen, and cultured overnight in a Dulbecco modified Eagles' medium (DMEM) containing 10% fetal calf serum (FCS). Then, a transfection reagent (LIPOFECTAMINE 2000; GIBCO BRL) was used to transfect 0.01 ng of a plasmid pEF-BOS-NA or a plasmid pEF-BOS (negative control vector) and 5 ng of a pCRE-Luc vector (CLONTECH) to the cells. […] After the medium was aspirated, the cells were lysed with a cell lysing solution (cell lysis buffer LCβ; Toyo Ink Mfg.). A luciferase activity of the lysate was measured by a commercially available measuring kit (PicaGene Luminescent kit; Toyo Ink Mfg.) and a measuring apparatus (ML3000 microtiter plate luminometer; Dynatech Laboratories).

[2] = system: mouse pancreatic β cell line MIN6; experiment: Insulin secretion from mouse pancreatic β cell line MIN6, Part 1 (Example 8); format: cell-based; settings: MIN6 cells, 20 minutes
Method: MIN6 cells (2×10^5 cells) were seeded on a 24-well plate, and cultured for 2 days in a DMEM containing 10% FCS. The medium was aspirated, and the cells were washed with KRB-HEPES (140 mmol/L NaCl, 3.6 mmol/L KC1, 0.5 mmol/L NaH2PO4, 0.5 mmol/L MgSO4, 1.5 mmol/L CaCl2, 10 mmol/L Hepes, 2 mmol/L NaHCO3, 0.1% BSA, pH7.4). After 2.8 mmol/L glucose-containing KRB-HEPES (1 ml) was added, the whole was incubated at 37° C. for 30-60 minutes in the presence of 5% CO2.
After the buffer was aspirated, one of the four compounds obtained by the screening in Example 7, i.e., 2-(pyridine-4-yl)ethyl thiobenzoate, in the form of a solution (0.5 ml) prepared by diluting the compound with 2.8 mmol/L or 16.8 mmol/L glucose-containing KRB-HEPES, was added, and the whole was incubated at 37° C. for 20 minutes in the presence of 5% CO2. A supernatant was used for measuring an amount of insulin secreted.
(§2) A commercially available insulin radioimmunoassay kit (Phadeseph insulin; Pharmacia Upjohn) was used for the measurement of the amount of insulin secreted.

SD rats = experiment: Glucose tolerance test for SD rats (Example 9); format: in vivo, rat; settings: 100 mg/kg intraperitoneally 5 minutes before 2 g/kg oral glucose, 30 minutes after glucose, p<0.05 vs control
Method: (§3) SD rats (4 weeks old; CLEA JAPAN) were forced to fast overnight, and 2 g/kg of glucose was orally administered. 100 mg/kg of 2-(pyridine-4-yl)ethyl thiobenzoate (LT-1 Z 0059519) had been intraperitoneally administered 5 minutes before the glucose administration. An appropriate amount of blood was taken 0 minute, 30 minutes, 60 minutes, and 120 minutes after the glucose administration, and used for the measurement of a blood glucose level and a concentration of plasma insulin.
(§4) For measuring the blood glucose level, a supernatant obtained by mixing blood and 0.33 mol/L perchloric acid (blood:0.33 mol/L perchloric acid=1:10) and centrifuging the mixture (3000×g, 10 minutes, 4° C.) was used. For measuring the concentration of plasma insulin, a supernatant obtained by centrifuging blood (3000×g, 10 minutes, 4° C.) was used. Further, Glucose C test Wako (Wako) was used in the measurement of the blood glucose level, and a rat insulin assay system (Amersham) was used in the measurement of the concentration of plasma insulin.
FIG. 1 illustrates a time course of the concentration of plasma insulin (unit=ng/mL) after the oral administration of glucose, and FIG. 2 illustrates a time course of the blood glucose level (unit=mg/dL) after the oral administration of glucose. […]

GK (Goto-Kakizaki) rats = experiment: Glucose tolerance test for GK rats, type II diabetes model (Example 9); format: in vivo, rat; settings: 100 mg/kg orally administered, 2 g/kg oral glucose, 30 and 60 minutes after glucose
Method: as §3, §4
Then, a glucose tolerance test for GK (Goto-Kakizaki) rats (type II diabetes models with incomplete insulin secretion; 7 weeks old; Charles River Japan) by one oral dose was carried out. […]

[3] = target: T1, polypeptide consisting of the amino acid sequence of SEQ ID NO: 2; experiment: CRE-luciferase reporter screening in transfected 293-EBNA cells (Example 10); format: cell-based; settings: 293-EBNA cells transfected with pEF-BOS-NA and pCRE-Luc; 6 hours; specific versus pEF-BOS control vector
Method: as §1
293-EBNA cells (7×10^4 cells/well) were seeded on a 24-well plate coated with collagen, and cultured overnight in a Dulbecco modified Eagles' medium (DMEM) containing 1% fetal calf serum (FCS). Then, a transfection reagent (LIPOFECTAMINE 2000; GIBCO BRL) was used to transfect 0.1 ng of a plasmid pEF-BOS-NA or a plasmid pEF-BOS (negative control vector) and 20 ng of a pCRE-Luc vector (CLONTECH) to the cells. The transfected cells were further cultured for 18-20 hours, and then a test compound diluted with a medium containing 0.1% BSA was added, and the whole was incubated at 37° C. for 6 hours in the presence of 5% CO2. After the medium was aspirated, the cells were lysed with a cell lysing solution (cell lysis buffer LCβ; Toyo Ink Mfg.). A luciferase activity of the lysate was measured by a commercially available measuring kit (PicaGene Luminescence kit; Toyo Ink Mfg.) and a measuring apparatus (ML3000 microtiter plate luminometer; Dynatech Laboratories).
L-α-lysophosphatidylcholine oleoyl (L1881; SIGMA), a biocomponent, could be obtained.

[4] = target: T1, polypeptide consisting of the amino acid sequence of SEQ ID NO: 2; experiment: Intracellular cAMP amount in transfected 293-EBNA cells, enzymeimmunoassay (Example 11); format: cell-based; settings: 293-EBNA cells transfected with pEF-BOS-NA; 1 mmol/L IBMX; 30 minutes
Method: as §1
293-EBNA Cells (1×10^4 cells/well) were seeded on a 96-well plate coated with collagen, and cultured for 24 hours. Then, a transfection reagent (LIPOFECTAMINE 2000; GIBCO BRL) was used to transfect 3 ng of a plasmid pEF-BOS-NA or a plasmid pEF-BOS (negative control vector) to the cells. The transfected cells were further cultured for 20 hours, and the medium was aspirated. After 80 μL of 1 mmol/L IBMX (3-isobutyl-1-methylxanthine)/0.1% BSA/DMEM was added, the whole was incubated at 37° C. for 10 minutes in the presence of 5% CO2. Then, a test compound diluted with 20 μL of 1 mmol/L IBMX/0.1% BSA/DMEM was added, and the whole was incubated for 30 minutes. After the medium was aspirated, the resulting cells were used for the measurement of an amount of cAMP. A commercially available cAMP enzymeimmunoassay system (cyclic AMP kit; Nihon Schering) was used to measure the amount of cAMP.

[5] = system: mouse pancreatic β cell line MIN6; experiment: Insulin secretion from mouse pancreatic β cell line MIN6, Part 2 (Example 12); format: cell-based; settings: MIN6 cells, 16.8 mmol/L glucose, 30 minutes
Method: MIN6 cells (2.5×10^5 cells) were seeded on a 24-well plate coated with collagen, and cultured for 2 days in a DMEM containing 10% FCS (Cat. No. 11995-065; GIBCO BRL). The medium was aspirated, and 0.4 mL of a glucose-free DMEM containing 10% FCS (Cat. No. 11966-025; GIBCO BRL) was added. The whole was incubated at 37° C. for 2 hours in the presence of 5% CO2.
After the medium was aspirated, 0.5 mL of a solution of L-α-lysophosphatidylcholine oleoyl, the compound selected by the screening method in Example 10, diluted with 2.8 mmol/L or 16.8 mmol/L glucose-containing DMEM (Cat. No. 11966-025; GIBCO BRL) was added, and the whole was incubated at 37° C. for 30 minutes in the presence of 5% CO2. A supernatant was used for measuring an amount of insulin secreted.
as §2

Row | SMILES | EC50 [1] [µM] | amount of insulin secreted ([2]; 2.8 mmol/L glucose) | amount of insulin secreted ([2]; 16.8 mmol/L glucose) | concentration of plasma insulin (SD rats) | increase of the blood glucose level by the glucose administration (SD rats) | increase of the blood glucose level by the glucose administration (GK (Goto-Kakizaki) rats) | reporter activity (luciferase) [3] | amount of cAMP [4] | amount of insulin secreted [5]
1 | O=C(SCCc1ccncc1)c1ccccc1 | 3.2 | did not cause an increase | caused an increase | significant increase | significantly suppressed | significantly suppressed |  |  | 
2 | CCCCCCCC/C=C\CCCCCCCC(=O)OC[C@@H](O)COP(=O)([O-])OCC[N+](C)(C)C [L-α-lysophosphatidylcholine oleoyl] |  |  |  |  |  |  | increase of a reporter activity specifically in cells | exhibited an increase of the amount of cAMP specifically in the cells | caused an increase
